These results are taken from patent publication US20220233558A1, “METHOD AND COMPOSITION FOR PREDICTING EFFICACY OF BCL2/BCL-XL INHIBITORS ON CANCER” (Ascentage Pharma (Suzhou) Co., Ltd., priority 2019, published 2022).

The target in test [1] is BCL-2:BIM complex (Homo sapiens, UniProt P10415). The test can be described thus: MSD advanced ELISA of BCL-2:BIM complex in Toledo and RS4;11 cells. It counts as cell-based. Particulars: treated for 24 hours.
Method: Toledo (a diffuse large B cell lymphoma line) and RS4;11 (an acute lymphocytic leukemia line) were chosen for the study. […] Both BCL-2:BIM and BCL-XL:BIM complex were analyzed following previously established MSD advanced ELISA methods.
In test [2] the target is T1, BCL-XL:BIM complex (Homo sapiens, UniProt Q07817). The test can be described thus: MSD advanced ELISA of BCL-XL:BIM complex in Toledo cells. It counts as cell-based. Also on record: endogenous in cells; host or cells: Toledo. The following applies: treated for 24 hours. The method, then:
(§1) MSD advanced ELISA is a method similar to enzyme-linked immunosorbent assay (ELISA) except MSD uses electrochemiluminescence (ECL) as a detection technique while ELISA uses a colormetric reaction. In general, a solution (e.g. cell lysate) containing the protein/complex of interest is added to a substrate (e.g., wells in a plate) coated with a capture antibody specifically binding to a protein of interest. After washing, a second antibody specifically binding to a partner protein that binds to the protein of interest is added. The second antibody (or an antibody binding to the second antibody) is linked to an ECL agent, e.g. a ruthenium (Ru) metal ion, and the substrate contains an electrode. In the presence of the partner protein/protein complex, the second antibody binds to the protein complex, and the ruthenium ion will be close enough proximity to the electrode to trigger an oxidation-reduction reaction that produces light which can be detected by a CCD camera. Compared to a traditional ELISA, MSD has many advantages such as higher sensitivity, better dynamic range, less matric effects, less sample required and better efficiencies. As a result, MSD can be used to detect a protein complex in cell lysate.
(§2) Toledo (a diffuse large B cell lymphoma line) and RS4;11 (an acute lymphocytic leukemia line) were chosen for the study. Cells were treated for 24 hours with compounds specified in FIGS. 6A and 7A (Toledo), and FIGS. 6B and 7B (RS4;11; Compound B, ABT-737 and ABT-263 were used the same concentrations for each cell line) and harvested for complex analysis. Both BCL-2:BIM and BCL-XL:BIM complex were analyzed following previously established MSD advanced ELISA methods.
A general note: ELISA stands for enzyme-linked immunosorbent assay.

Test [3] has as its target T1, BCL-XL:BIM complex. The test can be described thus: MSD advanced ELISA of BCL-XL:BIM complex in RS4;11 cells. It counts as cell-based. Particulars: treated for 24 hours. Also on record: endogenous in cells; host or cells: Toledo. The protocol:
as §1, §2

The target in test [4] is BCL-2 (Homo sapiens, UniProt P10415). The test can be described thus: Binding affinity to BCL-2 protein.
Test [5] addresses BCL-xL (Homo sapiens, UniProt Q07817). The test can be described thus: Binding affinity to BCL-xL protein.
Test [6] concerns the target T2, BCL-w (Homo sapiens, UniProt Q92843).
T2 sequence (Q92843 1-193): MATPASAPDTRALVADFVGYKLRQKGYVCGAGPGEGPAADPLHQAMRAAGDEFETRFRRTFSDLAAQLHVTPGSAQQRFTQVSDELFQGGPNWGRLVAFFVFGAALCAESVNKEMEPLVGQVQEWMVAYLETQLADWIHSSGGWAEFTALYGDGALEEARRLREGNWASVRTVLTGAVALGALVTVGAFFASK
The test can be described thus: Binding affinity to BCL-w protein.

In test [7] the target is Mcl-1 protein (Homo sapiens, UniProt Q07820). The test can be described thus: Binding affinity to Mcl-1 protein.
The test system of test [8] is cancer cell lines. The test can be described thus: Cell growth inhibitory activity in vitro. It counts as cell-based. The following applies: subset of cancer cell lines.
Test [9] relates to caspase-3 and PARP. The test can be described thus: Cleavage of caspase-3 and PARP (apoptosis markers). Format: cell-based. Particulars: in cancer cells and in xenograft tumor tissues.
Test [10] concerns BCL-2, MCL-1, BIM, PUMA protein levels. The test can be described thus: Western blotting of apoptosis proteins in PDX samples. Format: in vivo. The following applies: PDX models, Western blot. The protocol:
PDX models (including 8 gastric cancers and 3 esophageal cancers) were selected for trials with BCL-2/BCL-XL dual inhibitor Compound A. Models were treated with 100 mg/kg twice weekly dosing schedule for three weeks, and tumor tissues were harvested for complexes analysis (specified in the figure panels) with MSD methods. Pharmacodynamics (PD) and biomarker studies of Compound A treatment were performed by MSD and Western blotting (WB) assays. Specifically, protein extraction was performed with the sample, level of protein complex was measured by MSD methods, and the level of protein was measured by Western Blotting. TGI for each animal was calculated.
(Immunoblotting shows a protein as a band on a membrane.)

Test [11] has as its target T1, BCL-XL:BIM complex. The test can be described thus: MSD assay of BCL-XL complexes in gastric and esophageal cancer PDX models. Format: in vivo. Also noted: endogenous in cells. The protocol:
as §1, with “Compared to a traditional ELISA, MSD has many advantages such as higher sensitivity, better dynamic range, less matric effects, less sample required and better efficiencies. As a result, MSD can be used to detect a protein complex in cell lysate.” left out
PDX models (including 8 gastric cancers and 3 esophageal cancers) were selected for trials with BCL-2/BCL-XL dual inhibitor Compound A. Models were treated with 100 mg/kg twice weekly dosing schedule for three weeks, and tumor tissues were harvested for complexes analysis (specified in the figure panels) with MSD methods. […] TGI for each animal was calculated.

T1 sequence (Q07817 whole entry, one chain of several): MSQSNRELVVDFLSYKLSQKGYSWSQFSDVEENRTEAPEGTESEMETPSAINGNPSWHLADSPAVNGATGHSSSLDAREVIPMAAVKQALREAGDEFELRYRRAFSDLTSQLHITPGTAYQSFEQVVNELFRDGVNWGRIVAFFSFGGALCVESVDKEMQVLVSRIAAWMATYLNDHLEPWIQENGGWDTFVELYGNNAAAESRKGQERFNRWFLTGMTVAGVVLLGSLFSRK
Chain of Mcl-1 protein (Q07820 whole entry): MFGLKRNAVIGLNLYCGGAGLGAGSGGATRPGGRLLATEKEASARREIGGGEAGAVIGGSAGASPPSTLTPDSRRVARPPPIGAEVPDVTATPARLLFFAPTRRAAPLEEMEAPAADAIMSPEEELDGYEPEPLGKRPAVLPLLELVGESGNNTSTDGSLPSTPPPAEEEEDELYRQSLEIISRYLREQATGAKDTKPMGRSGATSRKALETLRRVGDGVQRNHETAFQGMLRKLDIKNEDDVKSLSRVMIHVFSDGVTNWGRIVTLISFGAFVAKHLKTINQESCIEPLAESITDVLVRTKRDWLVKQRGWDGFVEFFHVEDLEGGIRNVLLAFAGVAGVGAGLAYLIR
Chain of BCL-2:BIM complex (P10415 whole entry, one chain of several): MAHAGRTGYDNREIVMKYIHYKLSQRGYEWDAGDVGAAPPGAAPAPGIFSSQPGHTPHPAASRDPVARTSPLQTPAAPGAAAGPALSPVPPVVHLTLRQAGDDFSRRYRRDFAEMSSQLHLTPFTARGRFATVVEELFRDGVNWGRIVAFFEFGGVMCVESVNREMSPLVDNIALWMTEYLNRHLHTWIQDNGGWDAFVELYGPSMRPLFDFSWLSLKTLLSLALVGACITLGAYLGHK
Chain of BCL-2 (P10415 whole entry): as the sequence (P10415 whole entry, one chain of several) above
Chain of BCL-xL (Q07817 whole entry): as the sequence (Q07817 whole entry, one chain of several) above

Regarding `CC1(C)CCC(c2ccc(Cl)cc2)=C(CN2CCN(c3ccc(C(=O)NS(=O)(=O)c4ccc(N[C@H](CCN5CCOCC5)CSc5ccccc5)c(S(=O)(=O)C(F)(F)F)c4)cc3)CC2)C1` [ABT-263], the “change in BCL-2:BIM complex” value in [1] is on record as “reduction in BCL-2:BIM complex”. Moreover, the “disruption of BCL-XL:BIM complex” value in [2] and in test [3] was “much less disruption of BCL-XL:BIM complex than Compound B” in each case.

In the case of `CN(C)CC[C@H](CSc1ccccc1)Nc1ccc(S(=O)(=O)NC(=O)c2ccc(N3CCN(Cc4ccccc4-c4ccc(Cl)cc4)CC3)cc2)cc1[N+](=O)[O-]` [ABT-737], the figures for the “disruption of BCL-XL:BIM complex” value in test [2] and in test [3] were “much less disruption of BCL-XL:BIM complex than Compound B” and “almost no disruption of BCL-xL:BIM complex”, respectively.

Turning to `Cc1c(S(C)(=O)=O)c(-c2cc(F)cc(N3CCN(c4ccc(NS(=O)(=O)c5ccc(N[C@H](CCN6CCC(C(=O)OCCP(=O)(O)O)CC6)CSc6ccccc6)c(S(=O)(=O)C(F)(F)F)c5)cc4)CC3)c2)c(-c2ccc(Cl)cc2)n1C(C)C` [Compound A, (R)-2-(1-(3-(4-(N-(4-(4-(3-(2-(4-chlorophenyl)-1-isopropyl-5-methyl-4-(methylsulfonyl)-1H-pyrrol-3-yl)-5-fluorophenyl)piperazin-1-yl)phenyl)sulfamoyl)-2-(trifluoromethylsulfonyl)phenylamino)-4-(phenylthiol)butyl)piperidine-4-carbonyloxy)ethylphosphonic acid], the IC50 in test [4] turned out to be 1.6 nM; in test [5], 4.4 nM; in [6] it was 9.3 nM. Moreover, the “affinity to Mcl-1 protein” value in test [7] is listed as “weak affinity”. Further, in [8], the “cell growth inhibitory activity” value is recorded as “nanomolar potencies”. Moreover, in test [9], the “cleavage of caspase-3 and PARP” value is “effectively induces cleavage of caspase-3 and PARP”. Besides, in test [10], the “BCL-2 and MCL-1 anti-death protein levels after treatment” value is “significantly or in trend increases”. Besides, in test [10], the “pro-death proteins BIM or PUMA levels after treatment” value was “but not pro-death proteins BIM or PUMA”. Also, the “level of BCL-XL:BIM complex after treatment” value in test [11] (PDX models, 100 mg/kg twice weekly for three weeks, MSD assay) was “dropped”. Also, the “targeting of BCL-XL versus BCL-2 complex” value in [11] (in PDX) is given as “better in targeting BCL-XL than BCL-2 complex”.

Turning to `Cc1c(S(C)(=O)=O)c(-c2cc(F)cc(N3CCN(c4ccc(NS(=O)(=O)c5ccc(N[C@H](CCN6CCC(C(=O)O)CC6)CSc6ccccc6)c(S(=O)(=O)C(F)(F)F)c5)cc4)CC3)c2)c(-c2ccc(Cl)cc2)n1C(C)C` [Compound B, (R)-1-(3-(4-(N-(4-(4-(3-(2-(4-chlorophenyl)-1-isopropyl-5-methyl-4-(methylsulfonyl)-1H-pyrrol-3-yl)-5-fluorophenyl)piperazin-1-yl)phenyl)sulfamoyl)-2-(trifluoromethylsulfonyl)phenylamino)-4-(phenylthio)butyl)piperldine-4-carboxylic acid], the “disruption of BCL-XL:BIM complex” value in test [2] and in test [3] was “more potently disrupted BCL-XL:BIM than BCL-2:BIM complex” in each case.

The IC50 is the concentration at which inhibition is half-maximal. Low readings indicate greater potency, high ones weaker potency.
